Measured values from patent US11903956B2, “Compositions and products for infectious or inflammatory diseases or conditions” (B&H BIOTECHNOLOGIES, LLC, priority 2013, dated 2024).

How the values were obtained:
[1] = tested on: dogs suffered from acute diarrhea; assay: Treatment of diarrhea of dogs with formula-2.2; assay type: in vivo
Procedure: Two groups of dogs suffered from acute diarrhea with the symptoms of vomiting, depression, dehydration, listlessness, an increased frequency of diarrhea were treated once per day via oral administration or intramuscular injection with: 1) Cephradine according to manufacture's instruction (antibiotic group, n=15); and 2) 1.5 ml/kg of body weight of the formula-2.2 (n=10). Eight out ten (8/10, 80%) of the dogs stopped diarrhea after one dose of the treatment with formula-2.2.

[2] = tested on: sucking piglets with yellow watery diarrhea or infective gastroenteritis; assay: Treatment of piglet diarrhea at ages 1-5 days with formulations; assay type: in vivo
Excerpt: Diarrhea is a common disorder with sucking or weaning piglets. Viral or bacterial infections are common causes of piglet diarrhea. Piglets with viral diarrhea usually have yellow watery stools and piglets with bacterial diarrhea usually have gray stools. Sometimes, yellow diarrhea is accompanied with vomiting showing the characteristic of infective gastroenteritis. Often, piglet diarrhea or infective gastroenteritis is caused by mixed infection of viruses and bacteria. Piglets younger than one week could have a serious viral diarrhea or infective gastroenteritis with high death rates from about 70% to over 90%.
The formulations of 1.2, 2.2, 3.2 and 4.2 as prepared above in 6.1 were used for the treatment of diarrhea piglets at ages 1-5 days. […] In addition, combination of formula 1.2 and Enrofloxacin was also used for the treatment of piglet diarrhea.
Seven groups of sucking piglets with yellow watery diarrhea or infective gastroenteritis at ages of 1-5 days were treated once per day via oral administration or muscular injection with: 1) 1 ml/kg of body weight of ORS alone (control group, n=50); 2) Enrofloxacin according to manufacture's instruction (antibiotic control, n=69); 3) 1 ml/kg of body weight of the formula-1.2 (n=49); 4) 1 ml/kg of body weight of the formula-2.2 (n=82); 5) 1 ml/kg of body weight of the formula-3.2 (n=55); 6) 1 ml/kg of body weight of the […]; and 7) 1 ml/kg of body weight of the formula-1.2 plus Enrofloxacin (n=32).

[3] = tested on: sucking or weaning piglets with various diarrheas or infective gastroenteritis; assay: Treatment of piglet diarrhea at ages 5-40 days with formula-2.2; assay type: in vivo
Procedure: The formula-2.2 as prepared above in 6.1 was used for the treatment of diarrhea piglets at ages 5-40 days.
Two groups of sucking or weaning piglets with various diarrheas or infective gastroenteritis at ages of 5-40 days were treated once per day via oral administration with: 1) Enrofloxacin according to manufacture's instruction (antibiotic group, n=139); and 2) 1 ml/kg of body weight of the formula-2.2 (n=262).

rhesus rotavirus (RRV) = assay: Treatment of rotavirus infection of mouse pups with formulations; settings: RRV-infected mouse pups
[4] = tested on: influenza virus of A/PR/8/34(H1N1); assay type: in vivo, mouse
[5] = tested on: respiratory infections accompanied with the respiratory syndrome (asthma); assay: Treatment of respiratory infections or disorders of piglets; assay type: in vivo
Excerpt: The formulations of 1.2 and 3.2 as prepared above in 6.1 were used for the prevention and treatment of respiratory infections or disorders of piglets. The ORS alone and a commercially available antibiotic product, Timicosin were used as controls. In addition, combination of formula 3.2 and Timicosin was used for the treatment of respiratory infections or disorders of piglets.
Weaning piglets (10˜15 kg, aged 5-7 weeks) suffered from respiratory infections accompanied with the respiratory syndrome characterized by asthma-like symptoms (difficulty with breath). The sick piglets were treated separately once a day via oral administration or intramuscular injection with 1) Tilmicosin according to manufacture's instructions (n=39); 2) 1 ml/kg of body weight of the formula-3.2 (n=36); and 3) Tilmicosin and 1 ml/kg of body weight of the formula-3.2 (n=41).

[6] = tested on: dogs suffered from respiratory infections; assay: Treatment of respiratory infections of dogs; assay type: in vivo
Procedure: The formula-3.2 as prepared above in 6.1 was used via oral administration for the prevention or treatment of respiratory infections or disorders of dogs.
Two groups of dogs suffered from respiratory infections with the symptoms of runny nose, coughing, chills, fever and weakness/fatigue (etc.) were treated once per day via oral administration or intramuscular injection with: 1) Tulathromycin according to manufacture's instruction (antibiotic group, n=6); 2) 1.5 ml/kg of body weight of the formula-3.2 (n =6); and 3) Tulathromycin and 1.5 ml/kg of body weight of the formula-3.2 (n=9).

For `CC1=C(C(=O)O)N2C(=O)[C@@H](NC(=O)[C@H](N)C3=CCC=CC3)[C@H]2SC1` [Cephradine], the “Later Rec (recovered after 24 hours), number of dogs” value ([1]; dogs with acute diarrhea) was 14, the “Early Rec (recovered within 24 hours), number of dogs” value ([1]; dogs with acute diarrhea, once per day) was 1 and the OR ([1]; early recovery) was 0.02. The “Rate (%) of early recovery” value ([1]; recovered within 24 hours) was 6.67%.
With `CCN1CCN(c2cc3c(cc2F)c(=O)c(C(=O)O)cn3C2CC2)CC1` [Enrofloxacin] the “No death (number of piglets)” value ([2]; diarrhea piglets aged 1-5 days) was 21, the “OR(risk) of death” value ([2]; diarrhea piglets aged 1-5 days) was 0.19 and the “Rate (%) death rate” value ([2]; diarrhea piglets aged 1-5 days) was 69.6%. For the same molecule, the “Death (number of piglets)” value ([2]; diarrhea piglets aged 1-5 days, once per day) was 48, the “day after treatment at which majority of piglets stopped diarrhea” value ([2]; one dose treatment every day) was 4 to 5 days and the “day at which majority of piglets stopped diarrhea” value ([3]; after 4-5 dose treatment (one dose every day)) was 4 to 5 days. The “Later Rec (recovered after 48 hours), number of piglets” value ([3]; diarrhea piglets aged 5-40 days) was 136, the “Early Rec (recovered within 48 hours), number of piglets” value ([3]; diarrhea piglets aged 5-40 days, oral once per day) was 3 and the OR ([3]; early recovery) was 0.001. For the same molecule, the “Rate (%) of early recovery” value ([3]; recovered within 48 hours) was 2.16%, the “OR(effect)” value (rhesus rotavirus (RRV)) was 0.06 and the “OR(risk) of death” value (rhesus rotavirus (RRV)) was 0.76. The duration of diarrhea (rhesus rotavirus (RRV)) was 3 to 4 days, the “outcome in words (diarrhea severity, death rate, efficacy)” value (rhesus rotavirus (RRV)) was “serious” and the “Not effect (number of pups)” value (rhesus rotavirus (RRV); 50 μl oral once per day) was 48. For the same molecule, the “Effect (number of pups)” value (rhesus rotavirus (RRV); 50 μl oral once per day, […]) was 3, the “Death (number of pups)” value (rhesus rotavirus (RRV); kept 3 weeks) was 12 and the “Death Rate(%)” value (rhesus rotavirus (RRV); kept 3 weeks) was 23.5%. The “Not died (number of pups)” value (rhesus rotavirus (RRV); kept 3 weeks) was 39 and the “Rate(%) of effect” value (rhesus rotavirus (RRV); […]) was 5.88%.
With `CCOC(=O)C1=C[C@@H](OC(CC)CC)[C@H](NC(C)=O)[C@@H](N)C1` [Tamiflu] the “Odds Ratio of death” value ([4]; influenza infection of mice) was 0.36, the “Death (number of mice)” value ([4]; mouse, in vivo, ip) was 21 and the “Rate (%) death rate” value ([4]; mouse, in vivo, ip) was 70%.
`CC[C@H]1OC(=O)C[C@@H](O)[C@H](C)[C@@H](O[C@@H]2O[C@H](C)[C@@H](O)[C@H](N(C)C)[C@H]2O)[C@@H](CCN2C[C@H](C)C[C@H](C)C2)C[C@@H](C)C(=O)/C=C/C(C)=C/[C@@H]1CO[C@@H]1O[C@H](C)[C@@H](O)[C@@H](OC)[C@H]1OC` [Tilmicosin] was tested, and the “doses needed for getting recovered” value ([5]; in vivo) was 4-5 doses, the “Odds Ratio of death” value ([5]; piglets with respiratory syndrome) was 3.63 and the “Rate (%) death” value ([5]; weaning piglets with respiratory syndrome (asthma)) was 28.2%. The “Death (number of piglets)” value ([5]; weaning piglets with respiratory syndrome (asthma), once a day) was 11.
With `CCCNC[C@]1(O)[C@H](C)O[C@@H](O[C@H]2[C@H](C)[C@@H](O[C@@H]3O[C@H](C)C[C@H](N(C)C)[C@H]3O)[C@](C)(O)C[C@@H](C)CN[C@H](C)[C@@H](O)[C@](C)(O)[C@@H](CC)OC(=O)[C@@H]2C)C[C@@]1(C)OC` [Tulathromycin] the “doses needed for getting recovered” value ([6]; dog, in vivo) was 4-7 doses, the “Later Rec, number of dogs” value ([6]; dogs with respiratory infections) was 5 and the “Early Rec (recovered within 48-72 hours), number of dogs” value ([6]; dogs with respiratory infections, once per day) was 1. The OR ([6]; early recovery) was 0.04 and the “Rate (%) of early recovery” value ([6]; recovered within 48-72 hours) was 16.7%.
